Source: article PMC11009388, “Insights into the molecular mechanism of yellow cuticle coloration by a chitin-binding carotenoprotein in gregarious locusts” (Communications Biology, 2024)
“And” between values parts separate entries of the source, which are not always exact repeats. Equal entries are not always repeated. Blank lines part the entries; values can stand above or below the molecule they belong to.

How the values were obtained:
[1] = target: T1, BBP (β-carotene-binding protein), recombinant (Schistocerca gregaria, UniProt A0A6N3ISN1); assay: HPLC of carotenoids bound to purified protein; conditions: late induction in ECH/CAN-producing E. coli; competing with β-carotene in membranes
T1 construct: gene YPT; mature form residues 23-273, signal peptide removed; N-terminal His6 tag cleaved by 3C leaving GSHM; E. coli C41(DE3) making carotenoids
T1 sequence (A0A6N3ISN1 23-273): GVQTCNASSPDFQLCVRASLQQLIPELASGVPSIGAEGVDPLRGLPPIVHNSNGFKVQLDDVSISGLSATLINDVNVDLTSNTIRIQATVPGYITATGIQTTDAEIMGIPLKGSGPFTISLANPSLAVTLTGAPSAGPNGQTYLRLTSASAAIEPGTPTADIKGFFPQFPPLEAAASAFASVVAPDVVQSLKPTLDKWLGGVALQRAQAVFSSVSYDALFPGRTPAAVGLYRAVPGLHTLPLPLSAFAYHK

BmCBP = target: T2, BmCBP (Bombyx mori, UniProt Q8MYA9); assay: induced UV/Vis circular dichroism, absorbance spectrum, SECmelt; type: binding; conditions: 20 mM phosphate pH 7.2 (CD); sample has excess apoform
T2 construct: residues 68-297 (START domain), His-tag cleaved, preparation from previous work
T2 sequence (Q8MYA9 68-297): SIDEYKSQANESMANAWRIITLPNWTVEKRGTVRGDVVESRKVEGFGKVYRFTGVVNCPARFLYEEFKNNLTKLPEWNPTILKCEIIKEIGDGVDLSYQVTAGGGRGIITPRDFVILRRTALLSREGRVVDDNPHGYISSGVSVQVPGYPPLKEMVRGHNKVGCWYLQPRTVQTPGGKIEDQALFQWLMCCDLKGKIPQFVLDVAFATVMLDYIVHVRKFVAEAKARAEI

[2] = target: T1, BBP (β-carotene-binding protein), recombinant; assay: HPLC of bound carotenoid, absorbance, CD and Raman spectra, SEC of holoprotein; conditions: reconstituted in β-carotene-producing E. coli; 20 mM Tris-HCl pH 7.5, 150 mM NaCl
[3] = target: native BBP extracted from the yellow locust cuticle (Schistocerca gregaria (endogenous in locust cuticle)); assay: SEC; clarified soluble extract of yellow locust cuticle on Superdex 200 Increase 5/150, 0.45 mL/min; 20 mM Tris-HCl pH 7.5, 150 mM NaCl, 3 mM βME, 0.5 mM PMSF; apparent Mw from column calibration
[4] = target: recombinant β-carotene-binding protein from Schistocerca gregaria in complex with β-carotene, BBP(βCar) (Schistocerca gregaria); assay: cross-linking; glutaraldehyde 0.23%, 15 min at 30 °C, 20 mM HEPES pH 7.5, 150 mM NaCl; analysed by SDS-PAGE
[5] = target: recombinant β-carotene-binding protein from Schistocerca gregaria in complex with β-carotene, BBP(βCar) (Schistocerca gregaria); assay: SEC; spectrochromatography on Superdex 200 Increase 5/150, 0.45 mL/min; 20 mM Tris-HCl pH 7.5, 150 mM NaCl, 3 mM βME, also with 2 M urea or 0.05% DOC, or 10 mM MES pH 6.0, 150 mM NaCl; apparent Mw from column calibration
[6] = target: recombinant β-carotene-binding protein from Schistocerca gregaria in complex with β-carotene, BBP(βCar) (Schistocerca gregaria); assay: SEC-MALS; Superdex 200 Increase 10/300, 20 mM Tris pH 7.5, 150 mM NaCl, 3 mM βME, 0.8 mL/min; self-association of BBP(βCar)

Molecule: CC1=C(/C=C/C(C)=C/C=C/C(C)=C/C=C/C=C(C)/C=C/C=C(C)/C=C/C2=C(C)C(=O)CCC2(C)C)C(C)(C)CCC1=O [CAN, canthaxanthin]
HPLC of carotenoids bound to purified protein [1]: also exhibits capacity to bind ECH and, less efficiently, CAN

Molecule: CC1=C(/C=C/C(C)=C/C=C/C(C)=C/C=C/C=C(C)/C=C/C=C(C)/C=C/C2=C(C)C(=O)CCC2(C)C)C(C)(C)CCC1 [ECH, echinenone]
HPLC of carotenoids bound to purified protein [1]: BBP avidly binds β-carotene but also exhibits capacity to bind ECH

Molecule: CC1=C(/C=C/C(C)=C/C=C/C(C)=C/C=C/C=C(C)/C=C/C=C(C)/C=C/C2=C(C)C[C@@H](O)CC2(C)C)C(C)(C)C[C@H](O)C1 [ZEA, zeaxanthin]
induced UV/Vis circular dichroism, absorbance spectrum, SECmelt (BmCBP): UV/Vis circular dichroism spectrum was distinctly different from that of the BmCBP complex with ZEA

Molecule: CC1=C(/C=C/C(C)=C/C=C/C(C)=C/C=C/C=C(C)/C=C/C=C(C)/C=C/C2=C(C)CCCC2(C)C)C(C)(C)CCC1 [βCar, β-carotene]
HPLC of bound carotenoid, absorbance, CD and Raman spectra, SEC of holoprotein [2]: recombinant BBP, like native BBP from locusts, indeed contains almost exclusively β-carotene

stoichiometry N [3]: 2
Molecule: native BBP extracted from the yellow locust cuticle (natural protein)

stoichiometry N [4]: 4 and 2
stoichiometry N [5]: 2 and 4
stoichiometry N [6]: 2
Molecule: recombinant β-carotene-binding protein from Schistocerca gregaria in complex with β-carotene, BBP(βCar) (from UniProt A0A6N3ISN1 23-273) (natural protein)
